Earlier results, collected in patent publication US10694745B2, “Method for controlling rust” (UPL LIMITED, priority 2013, dated 2020).

What was measured:
Phakopsora pachyrhizi = conditions: single fungicide
soybean = conditions: in vivo

| SMILES | control of soybean rust (Phakopsora pachyrhizi) | phytotoxicity (soybean) |
| --- | --- | --- |
| CO/C=C(/C(=O)OC)c1ccccc1Oc1cc(Oc2ccccc2C#N)ncn1 [Azoxystrobin] | good control | – |
| c1ccc2[nH]c(-c3cscn3)nc2c1 [Thiabendazole] | – | phytotoxic |
| O=C(Nc1ccccc1-c1ccc(Cl)cc1)c1cccnc1Cl [Boscalid] | moderate control | – |
